The source of these data is patent US20090118288A1, “N-Benzyl-Morpholine Derivatives as Modulators of the Chemokine Receptor” (ASTRAZENECA AB, priority 2005, published 2009).

One assay has as its target T1, human recombinant CCR3 receptors (Homo sapiens, UniProt P51677).
T1 construct: expressed in transfected cells
T1 sequence (P51677 1-355): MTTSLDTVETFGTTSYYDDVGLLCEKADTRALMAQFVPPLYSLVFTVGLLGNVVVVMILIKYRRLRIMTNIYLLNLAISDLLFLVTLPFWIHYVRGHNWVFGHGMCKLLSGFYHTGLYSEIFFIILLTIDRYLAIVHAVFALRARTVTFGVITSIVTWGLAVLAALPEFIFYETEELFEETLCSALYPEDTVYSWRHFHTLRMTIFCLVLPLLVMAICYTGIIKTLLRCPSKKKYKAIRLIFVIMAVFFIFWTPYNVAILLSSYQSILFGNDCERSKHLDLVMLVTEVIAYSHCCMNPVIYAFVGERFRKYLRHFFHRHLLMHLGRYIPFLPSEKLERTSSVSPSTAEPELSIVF
Briefly: Compound affinity at human recombinant CCR3 receptors by radioligand competition on CHO-K1 cell membranes. The format is binding. The conditions noted are these: competition of 2 nM [3H]-4-(2,4-dichloro-3-methylphenoxy)-1'-[4-(methylsulfonyl)benzoyl]-1,4'-bipiperidine, 2 h at 37° C., mean of minimum 2 experiments, Cheng-Prussof correction of pIC50. As to the method:
Determination of Compound Affinity at Human Recombinant CCR3 Receptors Assessed by Competition of [^3H]-4-(2,4-dichloro-3-methylphenoxy)-1′-[4-(methylsulfonyl)benzoyl]-1,4′-bipiperidine for CHO-K1 Cell Membranes In Vitro
Membranes, prepared from CHO-K1 cells stably expressing recombinant human CCR3, suspended in assay buffer (50 mM Tris-Base, pH 7.4; containing sodium chloride (100 mM) and magnesium chloride (2 mM)) were incubated in the presence of 2 nM [^3H]-4-(2,4-dichloro-3-methylphenoxy)-1′-[4-(methylsulfonyl)benzoyl]-1,4′-bipiperidine, along with vehicle (1% (v/v) DMSO), 4-(4-chloro-3-methylphenoxy)-1′-[2-(methylsulfonyl)benzoyl]-1,4′-bipiperidine (to define non-specific binding) or test compound for 2 h at 37° C. in round bottomed 96-well plates. The plates were then filtered onto GF/B filter plates, pre-soaked for 1 hour in plate-coating solution (0.3% (w/v) polyethylenimine, 0.2% (w/v) BSA in de-ionised water), using a 96-well plate Tomtec cell harvester. Four washes (250 μL) with wash buffer (50 mM Tris-Base, pH 7.4 containing sodium chloride (500 mM) and magnesium chloride (2 mM)) were performed at 4° C. to remove unbound radioactivity. Plates were dried and MicroScint-O (50 μL) was added to each well. The plates were sealed (TopSeal A) and filter-bound radioactivity was measured with a scintillation counter (TopCount, Packard BioScience) using a 1 minute counting protocol.
Specific binding was determined from values of the control wells minus the values for the NSB wells for each assay plate. pIC50 values were calculated using a four parameter logistic fit (where pIC50 is defined as the negative logarithm of the concentration of compound required for 50% reduction in specific [^3H]-4-(2,4-dichloro-3-methylphenoxy)-1′-[4-(methylsulfonyl)benzoyl]-1,4′-bipiperidine binding). Data were presented as mean pKi values (calculated by applying a Cheng-Prussof correction to pIC50 values) from a minimum of 2 separate experiments.
On the technique in general: Loss of bound radioactivity is the signal in a displacement assay; it reports binding, not function.
For the compound “2-Amino-6-({[4-(3,4-dichloro-benzyl)-morpholin-2-ylmethyl]-carbamoyl}-methylsulfanyl)-5-fluoro-nicotinic acid [Example 29A]”, the “CCR3 pKi” value stood at 9.4.

The same assay, now with this note: competition of 2 nM [3H]-4-(2,4-dichloro-3-methylphenoxy)-1'-[4-(methylsulfonyl)benzoyl]-1,4'-bipiperidine, 2 h at 37° C., mean of minimum 2 experiments, Cheng-Prussof correction of pIC50, read-out: CCR3 pKi (converted).
As to `O=C(CSc1ccc(C(=O)O)cc1C(F)(F)F)NC[C@H]1CN(Cc2ccc(Cl)c(Cl)c2)CCO1` [Example 8A, (S)-4-[[4-[(3,4-dichlorophenyl)methyl]morpholin-2-yl]methylcarbamoylmethylsulfanyl]-3-(trifluoromethyl)benzoic acid], the Ki was 200 pM.

As for `O=C(CSc1ccc(C(=O)O)cc1)NC[C@H]1CN(Cc2ccc(Cl)c(Cl)c2)CCO1` [Example 2, (S)-4-[[4-[(3,4-dichlorophenyl)methyl]morpholin-2-yl]methylcarbamoylmethylsulfanyl]-benzoic acid], the Ki was 398 pM.

For the compound `Cc1c(CN2CCOC(CNC(=O)CSc3nc(N)c(C(=O)O)cc3F)C2)ccc(Cl)c1Cl` (centres unmarked) [Example 10A, 2-Amino-6-({[4-(3,4-dichloro-2-methyl-benzyl)-morpholin-2-ylmethyl]-carbamoyl}-methylsulfanyl)-5-fluoro-nicotinic Acid], the Ki was 200 pM.

Consider `O=C(CSc1cccc(C(=O)O)c1)NC[C@H]1CN(Cc2ccc(Cl)c(Cl)c2)CCO1` [Example 6, (S)-3-[[4-[(3,4-dichlorophenyl)methyl]morpholin-2-yl]methylcarbamoylmethylsulfanyl]-benzoic acid], for which the Ki was 501 pM.

Take `Cc1cc(CN2CCO[C@@H](CNC(=O)CSc3ccc(C(=O)O)cc3F)C2)ccc1Cl` [Example 16A, 4-[[(2S)-4-[(4-chloro-3-methyl-phenyl)methyl]morpholin-2-yl]methylcarbamoylmethylsulfanyl]-3-fluoro-benzoic acid]: the Ki was 251 pM.

For the compound `O=C(CSc1ncc(C(=O)O)cc1Cl)NC[C@H]1CN(Cc2ccc(Cl)c(Cl)c2)CCO1` [Example 9A, (S)-5-chloro-6-[[4-[(3,4-dichlorophenyl)methyl]morpholin-2-yl]methylcarbamoylmethylsulfanyl]-nicotinic acid], the Ki is 251 pM.

`Cc1cc(F)ccc1CN1CCO[C@@H](CNC(=O)CSc2ccc(C(=O)O)cc2F)C1` [Example 31A, 3-Fluoro-4-[[(2S)-4-[(4-fluoro-2-methyl-phenyl)methyl]morpholin-2-yl]methylcarbamoylmethylsulfanyl]benzoic Acid]: the Ki is 1000 pM.
